Source: patent US6362181B1, “Isoquinolones” (Warner-Lambert Company, priority 1996, dated 2002)
Converted amounts (≈) assume the structure as drawn. Counter-ions that a name gives are not always drawn.

How the values were obtained:
S. pyogenes C203 = assay: Antibacterial assay, standard microtitration, MIC; assay type: cell-based; details: Gram positive; for MIC: Streptococcus pyogenes, read-out: Minimum Inhibitory Concentrations, S. pyogenes C203
Procedure: (§1) The compounds of the present invention were tested against an assortment of gram negative and gram positive organisms using standard microtitration techniques (Cohen, et al., Antimicrob. Agents Chemother., 1985;28:766; Heifetz, et al. Antimicrob. Agents Chemother., 1974;6:124).

E. coli MC4100 = assay: Antibacterial assay, standard microtitration, MIC; assay type: cell-based; details: Gram negative; for MIC: Escherichia coli, read-out: Minimum Inhibitory Concentrations, E. coli MC4100
Procedure: as §1

E. coli B90 = assay: Antibacterial assay, standard microtitration, MIC; assay type: cell-based; details: Gram negative; for MIC: Escherichia coli, read-out: Minimum Inhibitory Concentrations, E. coli B90
Procedure: as §1

B. subtilis RB1 = assay: Antibacterial assay, standard microtitration, MIC; assay type: cell-based; details: Gram positive; for MIC: Bacillus subtilis, read-out: Minimum Inhibitory Concentrations, B. subtilis RB1
Procedure: as §1

S. aureus 29213 = assay: Antibacterial assay, standard microtitration, MIC; assay type: cell-based; details: Gram positive; for MIC: Staphylococcus aureus, read-out: Minimum Inhibitory Concentrations, S. aureus 29213
Procedure: as §1

relaxed plasmid pBR322 = assay: DNA intercalation/binding assay; details: pBR322 with calf thymus topoisomerase I, 30 minutes at 37° C.; read-out: Drug Concentration causing 50% Intercalation of DNA
Procedure: Compounds of the present invention were evaluated for their ability to intercalate/bind to DNA, using the procedure described in Nucleic Acids Research, 1987;15(15):6713. Specifically, 0.2 μg of relaxed plasmid pBR322 (Lucent, Ltd., Leicester, UK) was treated with 2 U of calf thymus topoisomerase I (Gibco/BRL, Gaithersburg, Md.) in buffer I (10 mM Tris-HCl (Ph 7.5), 50 mM KCl, 5 mM MgCl2, 1 mM Na2EDTA, 15 μg/mL bovine serum albumin) in the presence or absence of test compounds. Reaction were incubated for 30 minutes at 37° C.; volumes were typically 30 μL. Reactions were terminated by the addition of sodium dodecylsulfate (SDS) to 1% and proteinase K to 0.5 mg/mL final concentrations. After an additional 30 minutes at 37° C., one-tenth volume of 10×concentrated loading buffer (0.3% bromophenol blue, 16% Ficoll, 10 mM Na2HPO4) was added, and samples were loaded onto horizontal 0.8% agarose gels prepared in TAE buffer. Electrophoresis was at 22 V for 14 hours. Gels were then stained by soaking for 1.5 hours in deionized water containing 0.2 μg/mL of ethidium bromide, followed by destaining in deionized water for an additional 1.5 hours. Gels were examined and photographed following exposure to UV light. The concentration of the drug which induced a 50% change in the DNA by intercalation is represented by an intercalation IC50 and is recorded in Table 4.

E. coli To1C = assay: Antibacterial assay, standard microtitration, MIC; assay type: cell-based; details: for MIC: Escherichia coli, TO1C, read-out: Minimum Inhibitory Concentrations, E. coli To1C; for Minimum Inhibitory Concentrations, E. coli To1C: Gram negative
Procedure: as §1

| melting point [°C] | Structure (SMILES) | MIC (S. pyogenes C203) [µg/mL] | MIC (E. coli MC4100) [µg/mL] | MIC (E. coli B90) [µg/mL] | MIC (B. subtilis RB1) [µg/mL] | MIC (S. aureus 29213) [µg/mL] | other results |
| --- | --- | --- | --- | --- | --- | --- | --- |
| 300 to 302 | O=C1c2cccc3c(N4CCNCC4)c([N+](=O)[O-])cc(c23)C(=O)N1O |  |  |  |  |  |  |
|  | CN(C)CCN1C(=O)c2cccc3cc(N)cc(c23)C1=O [Amonafide, amonafide, reference compound] | 4 (≈ 14.1 µM) | 64 (≈ 226 µM) | 16 (≈ 56.5 µM) | 64 (≈ 226 µM) | 128 (≈ 452 µM) | IC50 (relaxed plasmid pBR322): < 10 µM |
|  | O=C1c2cccc3cc([N+](=O)[O-])cc(c23)C(=O)N1O [Example 1, 2-Hydroxy-5-nitro-benzo[de]isoquinoline-1,3-dione] | 32 (≈ 124 µM) | 4 (≈ 15.5 µM) | 2 (≈ 7.75 µM) | 8 (≈ 31 µM) | 8 (≈ 31 µM) | IC50 (relaxed plasmid pBR322): > 100 µM |
|  | O=C1c2cccc3c([N+](=O)[O-])ccc(c23)C(=O)N1O [Example 2, 2-Hydroxy-6-nitro-benzo[de]isoquinoline-1,3-dione] | 4 (≈ 15.5 µM) | 8 (≈ 31 µM) | 4 (≈ 15.5 µM) | 4 (≈ 15.5 µM) | 2 (≈ 7.75 µM) | IC50 (relaxed plasmid pBR322): > 100 µM |
|  | Nc1ccc2c3c(cccc13)C(=O)N(O)C2=O [Example 7, 6-Amino-2-hydroxy-benzo[de]isoquinoline-1,3-dione] | > 64 | 4 (≈ 17.5 µM) | 4 (≈ 17.5 µM) | 16 (≈ 70.1 µM) | 8 (≈ 35.1 µM) | MIC (E. coli To1C): 4 µg/mL (≈ 17.5 µM); IC50 (relaxed plasmid pBR322): > 100 µM |
|  | O=C1c2cccc3cc(F)cc(c23)C(=O)N1O [Example 11, 5-Fluoro-2-hydroxy-benzo[de]isoquinoline-1,3-dione] | > 64 | 8 (≈ 34.6 µM) | 2 (≈ 8.65 µM) | 8 (≈ 34.6 µM) | 64 (≈ 277 µM) | IC50 (relaxed plasmid pBR322): > 100 µM |
|  | COc1cc2c3c(cccc3c1N)C(=O)N(O)C2=O [Example 30, 6-Amino-2-hydroxy-5-methoxy-benzo[de]isoquinoline-1,3-dione] | 64 (≈ 248 µM) | 8 (≈ 31 µM) | 4 (≈ 15.5 µM) | 4 (≈ 15.5 µM) | 4 (≈ 15.5 µM) | MIC (E. coli To1C): 2 µg/mL (≈ 7.74 µM); IC50 (relaxed plasmid pBR322): > 100 µM |
|  | CC(=O)Nc1cc2c3c(cccc3c1N1CCCC1)C(=O)N(O)C2=O [Example 64, 5-Acetamido-2-hydroxy-6-(pyrrolidin-1yl)-benzo[de]isoquinoline-1,3-dione] | > 64 | > 64 | 32 (≈ 94.3 µM) | 64 (≈ 189 µM) | > 64 | MIC (E. coli To1C): 16 µg/mL (≈ 47.1 µM) |
| 252 to 255 | CC(=O)Nc1cc2c3c(cccc3c1N1CCCCC1)C(=O)C(O)C2=O (stereo not shown) [Example 65] |  |  |  |  |  |  |
| 292 to 295 | CC(=O)Nc1cc2c3c(cccc3c1[SH]1CCNCC1)C(=O)C(O)C2=O (stereo not shown) [Example 67] |  |  |  |  |  |  |
| 270 to 274 | Nc1cc2c3c(cccc3c1[SH]1CCNCC1)C(=O)N(O)C2=O [Example 73] |  |  |  |  |  |  |
| 252 to 254 | O=C1c2cccc3c(N4CCCCC4)c([N+](=O)[O-])cc(c23)C(=O)N1O [Example 77] |  |  |  |  |  |  |
| 280 to 283 | O=C1c2cccc3c([SH]4CCNCC4)c([N+](=O)[O-])cc(c23)C(=O)N1O [Example 78] |  |  |  |  |  |  |
| 320 to 322 | CN1CCN(c2c([N+](=O)[O-])cc3c4c(cccc24)C(=O)N(O)C3=O)CC1 [Example 80] |  |  |  |  |  |  |
| 259 to 263 | NC1CCN(c2c([N+](=O)[O-])cc3c4c(cccc24)C(=O)N(O)C3=O)C1 (stereo not shown) [Example 82] |  |  |  |  |  |  |
| 197 to 201 | O=C1c2cccc3c(N4CC[C@H](O)C4)c(Cl)cc(c23)C(=O)N1O [Example 84] |  |  |  |  |  |  |
|  | CC(C)NCC1CCN(c2c(Cl)cc3c4c(cccc24)C(=O)N(O)C3=O)C1.O=C(O)C(F)(F)F (stereo not shown) [Example 86] |  |  |  |  |  | Minimum Inhibitory Concentrations, S. pyogenes C203 (S. pyogenes C203): 4.0 µg/mL; Minimum Inhibitory Concentrations, E. coli MC4100 (E. coli MC4100): 8.0 µg/mL; Minimum Inhibitory Concentrations, E. coli B90 (E. coli B90): 0.5 µg/mL; Minimum Inhibitory Concentrations, B. subtilis RB1 (B. subtilis RB1): 2.0 µg/mL; Minimum Inhibitory Concentrations, E. coli To1C (E. coli To1C): 0.5 µg/mL; Minimum Inhibitory Concentrations, S. aureus 29213 (S. aureus 29213): 4.0 µg/mL |
| 228 to 229 | O=C1c2cccc3c(N4CCCCC4)c(Cl)cc(c23)C(=O)N1O [Example 94] |  |  |  |  |  |  |
| 240 to 242 | O=C1c2cccc3c([SH]4CCNCC4)c(Cl)cc(c23)C(=O)N1O [Example 95] |  |  |  |  |  |  |
|  | NC1CCN(c2c(Cl)cc3c4c(cccc24)C(=O)N(O)C3=O)C1.O=C(O)C(F)(F)F (stereo not shown) [Example 99] |  |  |  |  |  | Minimum Inhibitory Concentrations, S. pyogenes C203 (S. pyogenes C203): 4.0 µg/mL; Minimum Inhibitory Concentrations, E. coli MC4100 (E. coli MC4100): 2.0 µg/mL; Minimum Inhibitory Concentrations, E. coli B90 (E. coli B90): 1.0 µg/mL; Minimum Inhibitory Concentrations, B. subtilis RB1 (B. subtilis RB1): 1.0 µg/mL; Minimum Inhibitory Concentrations, E. coli To1C (E. coli To1C): 0.5 µg/mL; Minimum Inhibitory Concentrations, S. aureus 29213 (S. aureus 29213): 8.0 µg/mL |
| > 250 | CCCCNC(=O)Nc1cc2c3c(cccc3c1)C(=O)N(O)C2=O [Example 100] |  |  |  |  |  |  |
| > 250 | CNC(=O)Nc1cc2c3c(cccc3c1)C(=O)N(O)C2=O [Example 101] |  |  |  |  |  |  |
|  | Cc1cc2c3c(cccc3c1Br)C(=O)N(O)C2=O [Example 104, 6-Bromo-5-methyl-2-hydroxy-benzo[de]isoquinoline-1,3-dione] | > 64 | > 64 | 0.25 (≈ 0.817 µM) | 0.5 (≈ 1.63 µM) | 4 (≈ 13.1 µM) | MIC (E. coli To1C): 0.25 µg/mL (≈ 0.817 µM) |
|  | O=C1c2cccc3c([N+](=O)[O-])c(Br)cc(c23)C(=O)N1O [Example 108, 5-Bromo-2-hydroxy-6-nitro-benzo[de]isoquinoline-1,3-dione] | 16 (≈ 47.5 µM) | 8 (≈ 23.7 µM) | 0.25 (≈ 0.742 µM) | 2 (≈ 5.93 µM) | 4 (≈ 11.9 µM) | MIC (E. coli To1C): 0.5 µg/mL (≈ 1.48 µM) |
|  | O=C1c2cc([N+](=O)[O-])cc3c(N4CCCC4)c([N+](=O)[O-])cc(c23)C(=O)N1O [Example 111, 2-Hydroxy-5,8-dinitro-6-(pyrrolidin-1-yl)-benzo[de]isoquinoline-1,3-dione] | > 64 | > 64 | 2 (≈ 5.37 µM) | 32 (≈ 86 µM) | 8 (≈ 21.5 µM) | MIC (E. coli To1C): 4 µg/mL (≈ 10.7 µM) |
| 247 to 249 | CN1COc2cc3c4c(cccc4c2C1)C(=O)N(O)C3=O [Example 127] |  |  |  |  |  |  |
| 194 to 196 | CCCCCN1COc2cc3c4c(cccc4c2C1)C(=O)N(O)C3=O [Example 129] |  |  |  |  |  |  |
|  | O=C1c2cccc3c4c(cc(c23)C(=O)N1O)OCN(C1CC1)C4 [Example 131] |  |  |  |  |  | Minimum Inhibitory Concentrations, S. pyogenes C203 (S. pyogenes C203): >64 µg/mL; Minimum Inhibitory Concentrations, E. coli MC4100 (E. coli MC4100): 32 µg/mL; Minimum Inhibitory Concentrations, E. coli B90 (E. coli B90): 8.0 µg/mL; Minimum Inhibitory Concentrations, B. subtilis RB1 (B. subtilis RB1): 32 µg/mL; Minimum Inhibitory Concentrations, E. coli To1C (E. coli To1C): 8.0 µg/mL; Minimum Inhibitory Concentrations, S. aureus 29213 (S. aureus 29213): >64 µg/mL |
|  | O=C1c2cccc3c(N4CCCC4)c(F)cc(c23)C(=O)N1O [Example 134, 5-Fluoro-2-hydroxy-6-(pyrrolidin-1-yl)-benzo[de]isoquinoline-1,3-dione] | 8 (≈ 26.6 µM) | > 64 | 0.5 (≈ 1.67 µM) | 1 (≈ 3.33 µM) | 1 (≈ 3.33 µM) | MIC (E. coli To1C): 0.5 µg/mL (≈ 1.67 µM) |

| Structure (SMILES) | melting point [°C] | MIC (S. pyogenes C203) [µg/mL] | MIC (E. coli MC4100) [µg/mL] | MIC (E. coli B90) [µg/mL] | MIC (B. subtilis RB1) [µg/mL] | MIC (S. aureus 29213) [µg/mL] | other results |
| --- | --- | --- | --- | --- | --- | --- | --- |
| NCC1CCN(c2c(Cl)cc3c4c(cccc24)C(=O)N(O)C3=O)C1 (stereo not shown) (as salt: HCl) [Example 85] | 229 to 232 |  |  |  |  |  |  |
| CC1(CN)CCN(c2c(Cl)cc3c4c(cccc24)C(=O)N(O)C3=O)C1 (stereo not shown) (as salt: TFA) [Example 89] | 160 to 166 |  |  |  |  |  |  |
| CN1CCN(c2c(Cl)cc3c4c(cccc24)C(=O)N(O)C3=O)CC1 (as salt: TFA) [Example 98] | > 250 |  |  |  |  |  |  |
| Nc1cc2c3c(cccc3c1N1CCCCC1)C(=O)N(O)C2=O [Example 71] | 244 to 248 | 16 (≈ 51.4 µM) | > 64 | 4 (≈ 12.8 µM) | 2 (≈ 6.42 µM) | 2 (≈ 6.42 µM) | MIC (E. coli To1C): 4 µg/mL (≈ 12.8 µM) |
| CCCNC(=O)Nc1cc2c3c(cccc3c1)C(=O)N(O)C2=O [Example 102] | > 250 | > 64 | > 64 | 32 (≈ 102 µM) | 16 (≈ 51.1 µM) | > 64 | MIC (E. coli To1C): 16 µg/mL (≈ 51.1 µM) |
